Measured values published in US20230109839A1, “THERAPEUTIC AGENT FOR TAUOPATHIES” (SUMITOMO PHARMA CO., LTD., priority 2020, published 2023).

What follows are molecules tested against T1, human Nav1.1 (Homo sapiens, UniProt P35498) (assay: Amplification of Nav1.1-derived voltage-gated sodium current (Nav1.1 current), automated patch clamp (Test 1)). Settings: Concentration for evaluation 1 μM; HEK293 cell line stably expressing human Nav1.1.
T1 construct: host or cells: HEK293
Type: cell-based
Procedure, shortened: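 Compound-induced change in ramp-evoked sodium current peak and AUC was expressed as 100×post/pre ratio minus 100. Recordings used automated patch clamp in voltage-clamp mode on a stable human Nav1.1 HEK293 line, including only cells above 500 pA. Compounds were delivered in extracellular fluid containing 1% DMSO.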

Row | Structure (SMILES) | Nav1.1 current amplification rate (%)
1 | CC1CC=C(c2ccc(=O)n(CC(=O)N3CCc4c3ccnc4N3CCOCC3)n2)CC1 (stereo not shown) [Example 319] | 134
2 | CN(c1cnc2cnn(CC(=O)Nc3cccc(N4CCOCC4)c3F)c2n1)C1CCCC1 [Example 671] | 34
3 | CN(CC1(F)CC1)c1cnc2cnn(CC(=O)Nc3ccn4ncnc4c3)c2n1 [Example 640] | 38
4 | CN(c1cnc2cnn(CC(=O)Nc3ccn4ccnc4c3)c2n1)C1CCC1 [Example 685] | 41
5 | CN(c1ncc2cnn(CC(=O)Nc3ccc4ncnn4c3)c2n1)C1CC(C)(C)C1 [Example 668] | 72
6 | O=C(Cn1ncc2cnc(C3=CCCCC3)nc21)Nc1ccn2ncnc2c1 [Example 786] | 34
7 | CN(c1cnc2cnn(CC(=O)Nc3ccn4ccnc4c3)c2n1)C1CCCC1 [Example 670] | 77
8 | CN(c1cnc2cnn(CC(=O)Nc3cnc4cccnc4c3)c2n1)C1CC1 [Example 713] | 112
9 | Cc1cc(NC(=O)Cn2ncc3ncc(N(C)C4CCCC4)nc32)cc2ncnn12 [Example 672] | 56
10 | CC1CC=C(c2ccc(=O)n(CC(=O)N3CC=C(c4ccncc4)CC3)n2)CC1 (stereo not shown) [Example 419] | 66
11 | COC1CCN(c2nccc3c2CCN3C(=O)Cn2nc(C3=CCC(C)CC3)ccc2=O)CC1 (stereo not shown) [Example 309] | 71
12 | COc1cc(C2=CCC(C)(C)CC2)nn(CC(=O)N2CCc3c(N4CCOCC4)cccc32)c1=O [Example 468] | 275
13 | CN(c1cnc2cnn(CC(=O)Nc3ccc4ncnn4c3)c2n1)C1CCCC1 [Example 669] | 30
14 | CC1CC(N(C)c2cnc3cnn(CC(=O)Nc4ccn5ncnc5c4)c3n2)C1 (stereo not shown) [Example 635] | 76
15 | CN(c1cnc2cnn(CC(=O)Nc3ccn4ncnc4c3)c2n1)C1CC1(C)C (stereo not shown) [Example 631] | 49

Same assay, conditions: Concentration for evaluation 3 μM; HEK293 cell line stably expressing human Nav1.1

Row | Structure (SMILES) | Nav1.1 current amplification rate (%)
16 | CC1CC=C(c2ccc(=O)n(CC(=O)N3CCc4c(C5CCN(C)C5)cccc43)n2)CC1 (stereo not shown) [Example 269] | 127
17 | COC1CN(Cc2nc3cc(NC(=O)Cn4nc(C5=CCC(C)CC5)ccc4=O)ccc3o2)C1 (stereo not shown) [Example 332] | 15
18 | Cc1cccc(F)c1Oc1ncc2cnn(CC(=O)Nc3ccn4ncnc4c3)c2n1 [Example 783] | 11
19 | CC1CC=C(c2ccc(=O)n(CC(=O)N3CCc4c(C5CN(C6COC6)C5)cccc43)n2)CC1 (stereo not shown) [Example 301] | 410
20 | CC1CC=C(c2ccc(=O)n(CC(=O)Nc3cccc(N4CCOCC4)c3F)n2)CC1 (stereo not shown) [Example 322] | 115
21 | CC1CC=C(c2ccc(=O)n(CC(=O)N3CCc4c(-c5ccnn5C)cccc43)n2)CC1 (stereo not shown) [Example 251] | 307
22 | CC1CC=C(c2ccc(=O)n(CC(=O)N3CCc4c(OCC(C)(C)O)cccc43)n2)CC1 (stereo not shown) [Example 307] | 320

Same assay, conditions: Concentration for evaluation 10 μM; HEK293 cell line stably expressing human Nav1.1

Row | Structure (SMILES) | Nav1.1 current amplification rate (%)
23 | CC1CCN(c2ccc(=O)n(CC(=O)Nc3ccnc(C#N)c3)n2)CC1 [Example 53] | 161
24 | Cc1noc2cc(NC(=O)Cn3nc(C4=CCC(C)CC4)ccc3=O)ccc12 (stereo not shown) [Example 240] | 241
25 | N#Cc1ccc(NC(=O)Cn2nc(N3CCC4(CCCCC4)C3)ccc2=O)cc1 [Example 31] | 220
26 | CC1CC=C(c2ccc(=O)n(CC(=O)N3CCC(c4cccnc4)CC3)n2)CC1 (stereo not shown) [Example 262] | 124
27 | CC1(C)CC=C(c2ccc(=O)n(CC(=O)Nc3ccn4ccnc4c3)n2)C1 [Example 465] | 186
28 | CC1CC(C)CN(c2ccc(=O)n(CC(=O)Nc3ccc(C#N)cc3)n2)C1 (stereo not shown) [Example 15] | 10
29 | CC1(C)CC=C(c2ccc(=O)n(CC(=O)Nc3ccc4c(c3)OCC4)n2)CC1 [Example 426] | 244
30 | CC1CCN(c2ccc(=O)n(CC(=O)Nc3ccc4sc(N(C)C)nc4c3)n2)CC1 [Example 92] | 88
31 | N#Cc1ccc(NC(=O)Cn2nc(C3CCCCC3)ccc2=O)cc1 [Example 40] | 20
32 | CC1CCN(c2ccc(=O)n(CC(=O)Nc3ccc4cnn(C)c4c3)n2)CC1 [Example 83] | 45
33 | CC1CCN(c2ccc(=O)n(CC(=O)Nc3ccc4oc(N(C)C)nc4c3)n2)CC1 [Example 91] | 93
34 | Cc1ccc(-c2ccc(=O)n(CC(=O)Nc3ccc4ocnc4c3)n2)cn1 [Example 452] | 10
35 | CC1CCCN(c2ccc(=O)n(CC(=O)Nc3ccc(C#N)cc3)n2)C1 (stereo not shown) [Example 13] | 76
36 | COc1ncc(C2=CCN(C(=O)Cn3nc(C4=CCC(C)CC4)ccc3=O)CC2)cn1 (stereo not shown) [Example 400] | 238
37 | COC1CCN(c2ccc(=O)n(CC(=O)Nc3ccc(C#N)cc3)n2)CC1 [Example 9] | 11
38 | CC1CCN(c2ccc(=O)n(CC(=O)Nc3cc(Cl)c4ocnc4c3)n2)CC1 [Example 94] | 198
39 | CC1CC=C(c2ccc(=O)n(CC(=O)Nc3ccc(C4=CCN(C)C4)nc3)n2)CC1 (stereo not shown) [Example 374] | 18
40 | CC1(C)CC=C(c2ccc(=O)n(CC(=O)Nc3ccn4nccc4c3)n2)CC1 [Example 427] | 172
41 | CC1CC=C(c2ccc(=O)n(CC(=O)Nc3cccc4nccn34)n2)CC1 (stereo not shown) [Example 255] | 32
42 | CC1CCN(c2ccc(=O)n(CC(=O)Nc3ccc4c(c3)CCNC4=O)n2)CC1 [Example 93] | 65
43 | CC1CC=C(c2ccc(=O)n(CC(=O)N3CC=C(c4cccnc4)CC3)n2)CC1 (stereo not shown) [Example 402] | 323
44 | CC1(C)CCN(c2ccc(=O)n(CC(=O)Nc3ccc(C#N)cc3)n2)C1 [Example 21] | 130

Same assay, conditions: Concentration for evaluation 50 μM; HEK293 cell line stably expressing human Nav1.1

Row | Structure (SMILES) | Nav1.1 current amplification rate (%)
45 | CC1CC=C(c2ccc(=O)n(CC(=O)N3CCN(C4CCOCC4)CC3)n2)CC1 (stereo not shown) [Example 411] | 18
46 | CC1CC=C(c2ccc(=O)n(CC(=O)N3CC=C(c4cccnc4)C3)n2)CC1 (stereo not shown) [Example 386] | 126
47 | COCCCN1CC2(CCN(C(=O)Cn3nc(C4=CCC(C)CC4)ccc3=O)C2)C1 (stereo not shown) [Example 308] | 9
48 | CC1CC=C(c2ccc(=O)n(CC(=O)N3CCN(c4ccn(C)n4)CC3)n2)CC1 (stereo not shown) [Example 412] | 36

Same assay, conditions: HEK293, Concentration for evaluation 1 μM; HEK293 cell line stably expressing human Nav1.1; read-out: Nav1.1 current amplification rate (%)

Row | Structure (SMILES) | activation at 1 µM [%]
49 | N#Cc1cnc(NC(=O)Cn2ncc3ncc(N4CCC5(CC5)C(F)(F)C4)nc32)cn1 [Example 754] | 14

Same assay, conditions: HEK293, Concentration for evaluation 3 μM; HEK293 cell line stably expressing human Nav1.1; read-out: Nav1.1 current amplification rate (%)

Row | Structure (SMILES) | activation at 3 µM [%]
50 | Cc1nn(CC(=O)Nc2ccn3ncnc3c2)c2nc(N3CCC4(CCC4)C3)cnc12 [Example 738] | 22

Same assay, conditions: HEK293, Concentration for evaluation 10 μM; HEK293 cell line stably expressing human Nav1.1; read-out: Nav1.1 current amplification rate (%)

Row | Structure (SMILES) | activation at 10 µM [%]
51 | O=C(Cn1nc(N2CCCCC2)ccc1=O)Nc1ccnc(C(F)(F)F)c1 [Example 113] | 30

Same assay, conditions: HEK293, concentration for evaluation 0.3 μM; HEK293 stably expressing human Nav1.1; read-out: Nav1.1 current amplification rate (%)

Row | Structure (SMILES) | activation at 0.3 µM [%]
52 | CN(c1ncc2cnn(CC(=O)N3CCc4c(-c5ccnnc5)cccc43)c2n1)C1CC1 [Example 838] | 122

Same assay, conditions: HEK293, concentration for evaluation 1 μM; HEK293 stably expressing human Nav1.1; read-out: Nav1.1 current amplification rate (%)

Row | Structure (SMILES) | activation at 1 µM [%]
53 | CN(c1ncc2cnn(CC(=O)Nc3cnc4cccnc4c3)c2n1)C1CC1 [Example 841] | 28
54 | CN(CC1CCC1)c1ccc2cnn(CC(=O)Nc3cnc4cccnc4c3)c2n1 [Example 889] | 151

Same assay, conditions: HEK293, concentration for evaluation 50 μM; HEK293 stably expressing human Nav1.1; read-out: Nav1.1 current amplification rate (%)

Row | Structure (SMILES) | activation at 50 µM [%]
55 | CC1CCN(c2ncc3cnn(CC(=O)N4CCN(c5cccnc5)CC4)c3n2)CC1 [Example 835] | 118

Same assay, conditions: concentration for evaluation 1 μM; HEK293 stably expressing human Nav1.1

Row | Structure (SMILES) | Nav1.1 current amplification rate (%)
56 | CN(CC1(C)CC1)c1ncc2cnn(CC(=O)Nc3ccc4ncnn4c3)c2n1 [Example 822] | 42
57 | O=C(Cn1ncc2ccc(N3CCC4(CCC4)CC3)nc21)Nc1ccn2ncnc2c1 [Example 854] | 45
58 | O=C(Cn1ncc2ccc(C3=CCCCO3)nc21)Nc1ccn2ccnc2c1 [Example 868] | 19
59 | CC1CCN(c2ccc3cnn(CC(=O)Nc4ccn5ccnc5c4)c3n2)CC1 [Example 870] | 120
60 | O=C(Cn1ncc2ccc(-c3ccc(F)cc3F)nc21)Nc1ccc2ncnn2c1 [Example 871] | 10

Same assay, conditions: concentration for evaluation 50 μM; HEK293 stably expressing human Nav1.1

Row | Structure (SMILES) | Nav1.1 current amplification rate (%)
61 | CC1CCN(c2ccc3cnn(CC(=O)Nc4ccc(C(F)(F)F)nc4)c3n2)CC1 [Example 879] | 16
